Measurements from patent US10160748B2 (AbbVie Inc., priority 2015, dated 2018).

What follows are compounds tested against TNFα trimer (Homo sapiens, UniProt P01375) (assay: TNFα FP Competitive Binding Assay). Conditions: FP binding assay; 20 nM TNFα trimer, 1 nM OregonGreen488 probe; read-out: TNF IC50.
Outline: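 Compounds in 12-point 1:3 series, final top 100 μM (2.0% DMSO) or 338 μM (3.4% DMSO), displace 1 nM fluorescent probe from 20 nM TNFα trimer. After 18-24 h incubation plus 1 h rt equilibration, background-subtracted polarization measured and curves fitted with variable slope.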

Chain of TNFα trimer (P01375 77-233 limits assumed): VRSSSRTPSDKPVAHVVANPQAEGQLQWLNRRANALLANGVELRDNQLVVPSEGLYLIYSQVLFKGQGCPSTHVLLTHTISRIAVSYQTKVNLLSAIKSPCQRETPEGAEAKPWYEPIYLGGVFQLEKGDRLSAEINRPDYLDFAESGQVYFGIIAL

Q: With Cc1ccc(OC(F)F)c(Cn2c3cc(-c4cnc(N5CCN(S(C)(=O)=O)[C@H](C)C5)nc4)ccc3c(=O)n2C)c1 [Example 24, (R)-1-(2-(Difluoromethoxy)-5-methylbenzyl)-2-methyl-6-(2-(3-methyl-4-(methylsulfonyl)piperazin-1-yl)pyrimidin-5-yl)-1H-indazol-3(2H)-one] as the compound, how does the IC50 read?
A: < 1 µM

Q: How did the IC50 turn out when C[C@@H]1CN(c2ncc(-c3ccc4c(=O)n(C)n(Cc5cc(CC#N)ccc5OC(F)F)c4c3)cn2)CCN1C(=O)CO [Example 24.1] was run?
A: < 1 µM

Q: With Cc1cccc(C(C)n2c3cc(-c4cnc(N5CCN(C(=O)CO)[C@H](C)C5)nc4)ccc3c(=O)n2C)n1 (stereo partly shown) [Example 24.2] as the compound, how does the IC50 read?
A: 1 to 10 µM

Q: With CCC(c1cccc(C)c1)n1c2cc(-c3cnc(N4CCN(C(=O)CO)[C@H](C)C4)nc3)ccc2c(=O)n1C (stereo partly shown) [Example 24.3] as the compound, how does the IC50 read?
A: < 1 µM

Q: For C[C@@H]1CN(c2ncc(-c3ccc4c(=O)n(C(F)F)n(Cc5ccccc5OC(F)F)c4c3)cn2)CCN1C(=O)CO [Example 24.4], which IC50 is on record?
A: < 1 µM

Q: For C[C@@H]1CN(c2ncc(-c3ccc4c(=O)n(C)n(Cc5ccccc5Cl)c4c3F)cn2)CCN1C(=O)CO [Example 24.5], which IC50 is on record?
A: < 1 µM

Q: With C[C@@H]1CN(c2ncc(-c3ccc4c(=O)n(C)n(Cc5ccccc5OC(F)F)c4c3F)cn2)CCN1C(=O)CO [Example 24.6] as the compound, how does the IC50 read?
A: < 1 µM

Q: Which IC50 does the source give for CC(c1cc(F)ccc1F)n1c2cc(-c3cnc(N4CCN(C(=O)CO)[C@H](C)C4)nc3)ccc2c(=O)n1C (stereo partly shown) [Example 24.7] here?
A: < 1 µM

Q: Which IC50 does the source give for C[C@@H]1CN(c2ncc(-c3ccc4c(=O)n(C)n(Cc5ccccc5Cl)c4c3)cn2)CCN1C(=O)CO [Example 24.8] here?
A: < 1 µM

Q: COc1c(-c2cnc(N3CCN(C(=O)CO)[C@H](C)C3)nc2)ccc2c(=O)n(C)n(Cc3ccccc3Cl)c12 [Example 24.9] was tested. Which IC50 did it give?
A: < 1 µM

Q: How did the IC50 turn out when Cc1ccnc(C(C)n2c3cc(-c4cnc(N5CCN(C(=O)CO)[C@H](C)C5)nc4)ccc3c(=O)n2C)c1 (stereo partly shown) [Example 24.10] was run?
A: 1 to 10 µM

Q: How did the IC50 turn out when C[C@@H]1CN(c2ncc(-c3nc4c(cc3F)c(=O)n(C)n4Cc3ccccc3OC(F)F)cn2)CCN1C(=O)CO [Example 24.11] was run?
A: < 1 µM

Q: With Cc1c(-c2cnc(N3CCN(C(=O)CO)[C@H](C)C3)nc2)ccc2c(=O)n(C)n(Cc3ccccc3OC(F)F)c12 [Example 24.12] as the compound, how does the IC50 read?
A: < 1 µM

Q: Which IC50 does the source give for Cc1c(-c2cnc(N3CCN(C(=O)CO)[C@H](C)C3)nc2)ccc2c(=O)n(C)n(Cc3ccccc3Cl)c12 [Example 24.13] here?
A: < 1 µM

Q: How did the IC50 turn out when Cc1ccc(OC(F)F)c(Cn2c3cc(-c4cnc(N5CCN(C(=O)CC#N)[C@@H](C)C5)nc4)ccc3c(=O)n2C)c1 [Example 25.1] was run?
A: < 1 µM

Q: Cc1ccc(OC(F)F)c(Cn2c3c(F)c(-c4cnc(C(C)(C)O)nc4)ccc3c(=O)n2C)c1 [Example 26.1] was tested. Which IC50 did it give?
A: 1 to 10 µM

Q: Cc1ccc(OC(F)F)c(Cn2c3cc(-c4cnc(C(C)(C)O)nc4)ccc3c(=O)n2C(F)F)c1 [Example 26.2] was tested. Which IC50 did it give?
A: 1 to 10 µM

Q: Which IC50 does the source give for COC(=O)NCc1ccc(OC(F)F)c(Cn2c3cc(-c4cnc(C(C)(C)O)nc4)ccc3c(=O)n2C)c1 [Example 26.3] here?
A: 1 to 10 µM

Q: With Cn1c(=O)c2cc(F)c(-c3cnc(C(C)(C)O)nc3)cc2n1Cc1cc(Cn2cncn2)ccc1OC(F)F [Example 26.4] as the compound, how does the IC50 read?
A: < 1 µM

Q: Which IC50 does the source give for Cn1c(=O)c2cc(F)c(-c3cnc(C(C)(C)O)nc3)cc2n1Cc1cc(Cn2cnnc2)ccc1OC(F)F [Example 26.5] here?
A: 1 to 10 µM

Q: Which IC50 does the source give for CC(=O)N1CC(Cc2ccc(OC(F)F)c(Cn3c4cc(-c5cnc(C(C)(C)O)nc5)c(F)cc4c(=O)n3C)c2)C1 [Example 26.6] here?
A: 1 to 10 µM

Q: Cc1ccc(OC(F)F)c(Cn2c3nc(-c4cnc(C(C)(C)O)nc4)c(F)cc3c(=O)n2C)c1 [Example 26.7] was tested. Which IC50 did it give?
A: 1 to 10 µM

Q: Which IC50 does the source give for Cn1c(=O)c2ccc(-c3cnc(C(C)(C)O)nc3)cc2n1Cc1cc(CC#N)ccc1OC(F)F [Example 26.8] here?
A: 1 to 10 µM

Q: How did the IC50 turn out when CC(=O)NCc1ccc(OC(F)F)c(Cn2c3cc(-c4cnc(N5CCN(C(C)=O)[C@H](C)C5)nc4)ccc3c(=O)n2C)c1 [Example 27.1] was run?
A: 1 to 10 µM

Q: For COC(=O)NCc1ccc(OC(F)F)c(Cn2c3cc(-c4cnc(N5CCN(C(C)=O)[C@H](C)C5)nc4)ccc3c(=O)n2C)c1 [Example 27.2], which IC50 is on record?
A: < 1 µM
